Source: ChEMBL document CHEMBL1136903, “Spiroimidazolidinone NPC1L1 inhibitors. 1: Discovery by 3D-similarity-based virtual screening” (Bioorg Med Chem Lett, 2009)
pIC50: −log10 of the molar value.

Columns and labels:
[1] = target: T1, Niemann-Pick C1-like 1 protein (Macaca mulatta, UniProt A0MJA5); assay: Displacement of [35S](2S,3S,4S,5R,6S)-6-(4-((2S,3R)-3-((S)-3-(4-fluorophenyl)-3-hydroxypropyl)-1-(4-(3-(methylsulfonamido)prop-1-ynyl)phenyl)-4-oxoazetidin-2-yl)phenoxy)-3,4,5-trihydroxytetrahydro-2H-pyran-2-carboxylic acid from NPC1L1 in rhesus monkey enterocyte brush border membrane
T1 sequence (A0MJA5 whole entry): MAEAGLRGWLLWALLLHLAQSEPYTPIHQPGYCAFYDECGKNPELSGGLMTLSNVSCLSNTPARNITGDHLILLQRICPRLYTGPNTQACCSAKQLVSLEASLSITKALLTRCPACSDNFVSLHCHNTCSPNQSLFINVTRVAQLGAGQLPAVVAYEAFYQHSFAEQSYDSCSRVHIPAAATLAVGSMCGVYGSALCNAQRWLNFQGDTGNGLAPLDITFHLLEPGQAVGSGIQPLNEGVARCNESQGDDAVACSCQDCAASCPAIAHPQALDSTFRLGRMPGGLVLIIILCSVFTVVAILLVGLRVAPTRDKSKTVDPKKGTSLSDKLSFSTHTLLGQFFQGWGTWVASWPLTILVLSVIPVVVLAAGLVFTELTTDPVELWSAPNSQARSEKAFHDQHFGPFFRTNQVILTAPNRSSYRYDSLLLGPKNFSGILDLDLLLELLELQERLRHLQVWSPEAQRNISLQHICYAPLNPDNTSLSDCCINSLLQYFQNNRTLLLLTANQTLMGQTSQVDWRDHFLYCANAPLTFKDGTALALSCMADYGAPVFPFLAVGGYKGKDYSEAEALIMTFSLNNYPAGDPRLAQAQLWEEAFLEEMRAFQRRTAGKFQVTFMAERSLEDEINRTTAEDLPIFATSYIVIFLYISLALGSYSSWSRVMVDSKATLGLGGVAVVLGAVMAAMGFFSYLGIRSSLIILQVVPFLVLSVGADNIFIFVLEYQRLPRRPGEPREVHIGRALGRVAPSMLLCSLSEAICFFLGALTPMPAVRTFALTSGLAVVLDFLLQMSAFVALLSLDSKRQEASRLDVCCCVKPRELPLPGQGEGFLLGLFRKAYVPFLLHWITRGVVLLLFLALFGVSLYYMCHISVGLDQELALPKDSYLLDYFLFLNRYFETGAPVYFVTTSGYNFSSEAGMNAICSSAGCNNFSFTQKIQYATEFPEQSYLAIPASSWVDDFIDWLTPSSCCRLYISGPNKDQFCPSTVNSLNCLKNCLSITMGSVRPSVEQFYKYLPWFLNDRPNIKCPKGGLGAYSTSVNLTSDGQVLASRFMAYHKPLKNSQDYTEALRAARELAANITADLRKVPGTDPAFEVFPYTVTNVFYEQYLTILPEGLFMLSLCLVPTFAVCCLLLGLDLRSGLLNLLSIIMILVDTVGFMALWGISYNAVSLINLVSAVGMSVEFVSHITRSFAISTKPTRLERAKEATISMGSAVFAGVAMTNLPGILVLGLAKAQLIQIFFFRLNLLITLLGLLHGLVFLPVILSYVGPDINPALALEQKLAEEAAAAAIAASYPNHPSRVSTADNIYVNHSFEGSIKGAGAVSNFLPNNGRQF

[2] = Displacement of [35S](2S,3S,4S,5R,6S)-6-(4-((2S,3R)-3-((S)-3-(4-fluorophenyl)-3-hydroxypropyl)-1-(4-(3-(methylsulfonamido)prop-1-ynyl)phenyl)-4-oxoazetidin-2-yl)phenoxy)-3,4,5-trihydroxytetrahydro-2H-pyran-2-carboxylic acid from NPC1L1 in guinea pig enterocyte brush border membrane; parameters: species or system Cavia porcellus
[3] = Displacement of [35S](2S,3S,4S,5R,6S)-6-(4-((2S,3R)-3-((S)-3-(4-fluorophenyl)-3-hydroxypropyl)-1-(4-(3-(methylsulfonamido)prop-1-ynyl)phenyl)-4-oxoazetidin-2-yl)phenoxy)-3,4,5-trihydroxytetrahydro-2H-pyran-2-carboxylic acid from NPC1L1 in hamster enterocyte brush border membrane; parameters: species or system Cricetinae

Row | pIC50 [1] | pIC50 [2] | pIC50 [3] | Structure (SMILES)
1 | 7.52 | 5.48 | 6.19 | O=C(O)[C@H]1O[C@@H](Oc2ccc([C@@H]3[C@@H](CC[C@H](O)c4ccc(F)cc4)C(=O)N3c3ccc(F)cc3)cc2)[C@H](O)[C@@H](O)[C@@H]1O
2 | 3.84 | 3.93 | 4.21 | O=C([C@@H]1C[C@@H](c2ccccc2)CN1C(=O)c1ccccc1)N1CCC2(C=Cc3ccccc32)CC1
3 | 4.11 | 3.33 | 4.39 | CC(C)(C)c1ccc(C(=O)N2CCC3(CC2)C(=O)N(CC(=O)N2CCCCC2)CN3c2ccccc2)cc1
4 | 7.70 | 7.15 | 7.66 | CS(=O)(=O)NCC#CN1C(=O)[C@H](CC[C@H](O)c2ccc(F)cc2)[C@H]1c1ccc(O[C@@H]2O[C@H](C(=O)O)[C@@H](O)[C@H](O)[C@H]2O)cc1
